“And” between values parts separate entries of the source, which are not always exact repeats. Equal entries are not always repeated.
Molecular target: catD / beta-secretase (BACE)
Test: CatD/BACE selectivity (ratio of IC50 values)
Assay type: biochemical
Settings: each value is an average of four experimental runs; multiple values = more than one experiment
Description: Selectivity was calculated as a ratio of inhibition (IC50) values in which the inhibition of beta-secretase was compared to the inhibition of other aspartyl proteases.
In the following examples, each value is an average of four experimental runs and multiple values for one compound indicate that more than one experiment was conducted.

Compound | IC50 catD/IC50 BACE
CONC1CCC(NCC(O)C(Cc2cc(F)cc(F)c2)NC(C)=O)(c2cccc(C(C)(C)C)c2)CC1 (single isomer, unassigned) [196A-20 Diastereomer A, N-(4-(1-(3-tert-butylphenyl)-4-(methoxyamino)cyclohexylamino)-1-(3,5-difluorophenyl)-3-hydroxybutan-2-yl)acetamide] | 5.0
CONC1CCC(NCC(O)C(Cc2cc(F)cc(F)c2)NC(C)=O)(c2cccc(C(C)(C)C)c2)CC1 (single isomer, unassigned) [196A-21 Diastereomer B, N-(4-(1-(3-tert-butylphenyl)-4-(methoxyamino)cyclohexylamino)-1-(3,5-difluorophenyl)-3-hydroxybutan-2-yl)acetamide] | 12.3
CNC1CCC(NCC(O)C(Cc2cc(F)cc(F)c2)NC(C)=O)(c2cccc(C(C)(C)C)c2)CC1 (single isomer, unassigned) [196A-26 Diastereomer A, N-(4-(1-(3-tert-butylphenyl)-4-(methylamino)cyclohexylamino)-1-(3,5-difluorophenyl)-3-hydroxybutan-2-yl)acetamide] | >4.7
CNC1CCC(NCC(O)C(Cc2cc(F)cc(F)c2)NC(C)=O)(c2cccc(C(C)(C)C)c2)CC1 (single isomer, unassigned) [196A-28 Diastereomer B, N-(4-(1-(3-tert-butylphenyl)-4-(methylamino)cyclohexylamino)-1-(3,5-difluorophenyl)-3-hydroxybutan-2-yl)acetamide] | >3.9
CC(=O)NC(Cc1cc(F)cc(F)c1)C(O)CNC1(c2cccc(C(C)(C)C)c2)CCC(N)CC1 (single isomer, unassigned) [196A-29 Diastereomer A, N-(4-(1-(3-tert-butylphenyl)-4-aminocyclohexylamino)-1-(3,5-difluorophenyl)-3-hydroxybutan-2-yl)acetamide] | >8.4
CC(=O)NC(Cc1cc(F)cc(F)c1)C(O)CNC1(c2cccc(C(C)(C)C)c2)CCC(N)CC1 (single isomer, unassigned) [196A-30 Diastereomer B, N-(4-(1-(3-tert-butylphenyl)-4-aminocyclohexylamino)-1-(3,5-difluorophenyl)-3-hydroxybutan-2-yl)acetamide] | >8.4
CC(=O)NC(Cc1cc(F)cc(F)c1)C(O)CNC1(c2cccc(C(C)(C)C)c2)CCC(C(F)(F)F)CC1 (single isomer, unassigned) [196A-32 Diastereomer A, N-(4-(1-(3-tert-butylphenyl)-4-(trifluoromethyl)cyclohexylamino)-1-(3,5-difluorophenyl)-3-hydroxybutan-2-yl)acetamide] | 1.7
CC(=O)NC1CCC(NCC(O)C(Cc2cc(F)cc(F)c2)NC(C)=O)(c2cccc(C(C)(C)C)c2)CC1 (single isomer, unassigned) [196A-33 Diastereomer A, N-[3-[4-Acetylamino-1-(3-tert-butyl-phenyl)-cyclohexylamino]-1-(3,5-difluoro-benzyl)-2-hydroxy-propyl]-acetamide] | 34.4
CC(=O)NC(Cc1cc(F)cc(F)c1)C(O)CNC1(c2cccc(C(C)(C)C)c2)CCC(O)(CO)CC1 (single isomer, unassigned) [196A-35 Diastereomer A, N-[3-[1-(3-tert-Butyl-phenyl)-4-hydroxy-4-hydroxymethyl-cyclohexylamino]-1-(3,5-difluoro-benzyl)-2-hydroxy-propyl]-acetamide] | >7.4
CC(=O)NC(Cc1cc(F)cc(F)c1)C(O)CNC1(c2cccc(C(C)(C)C)c2)CCC(O)(CO)CC1 (single isomer, unassigned) [196A-36 Diastereomer B, N-[3-[1-(3-tert-Butyl-phenyl)-4-hydroxy-4-hydroxymethyl-cyclohexylamino]-1-(3,5-difluoro-benzyl)-2-hydroxy-propyl]-acetamide] | >5.3
COC(=O)NC1CCC(NCC(O)C(Cc2cc(F)cc(F)c2)NC(C)=O)(c2cccc(C(C)(C)C)c2)CC1 (single isomer, unassigned) [196A-37 Diastereomer A, methyl 4-(3-acetamido-4-(3,5-difluorophenyl)-2-hydroxybutylamino)-4-(3-tert-butylphenyl)cyclohexylcarbamate] | 7.7
COC(=O)NC1CCC(NCC(O)C(Cc2cc(F)cc(F)c2)NC(C)=O)(c2cccc(C(C)(C)C)c2)CC1 (single isomer, unassigned) [196A-38 Diastereomer B, methyl 4-(3-acetamido-4-(3,5-difluorophenyl)-2-hydroxybutylamino)-4-(3-tert-butylphenyl)cyclohexylcarbamate] | 2.6 and 2.0 and 2.3
CC(=O)NC(Cc1cc(F)cc(F)c1)C(O)CNC1(c2cccc(C(C)(C)C)c2)CCC(N(O)C(C)=O)CC1 (single isomer, unassigned) [196A-39 Diastereomer A] | 9.6
CC(=O)NC(Cc1cc(F)cc(F)c1)C(O)CNC1(c2cccc(C(C)(C)C)c2)CCC(NS(C)(=O)=O)CC1 (single isomer, unassigned) [196A-41 Diastereomer A, N-(4-(1-(3-tert-butylphenyl)-4-(methylsulfonamido)cyclohexylamino)-1-(3,5-difluorophenyl)-3-hydroxybutan-2-yl)acetamide] | 18.1
CC(=O)NC(Cc1cc(F)cc(F)c1)C(O)CNC1(c2cccc(C(C)(C)C)c2)CCC(NS(C)(=O)=O)CC1 (single isomer, unassigned) [196A-42 Diastereomer B, N-(4-(1-(3-tert-butylphenyl)-4-(methylsulfonamido)cyclohexylamino)-1-(3,5-difluorophenyl)-3-hydroxybutan-2-yl)acetamide] | >3.0
CC(=O)NC(Cc1cc(F)cc(F)c1)C(O)CNC1(c2cccc(C(C)(C)C)c2)CCC(NC=O)CC1 (single isomer, unassigned) [196A-43 Diastereomer A, N-(4-(1-(3-tert-butylphenyl)-4-formamidocyclohexylamino)-1-(3,5-difluorophenyl)-3-hydroxybutan-2-yl)acetamide] | 84.5
CNC(=O)NC1CCC(NCC(O)C(Cc2cc(F)cc(F)c2)NC(C)=O)(c2cccc(C(C)(C)C)c2)CC1 (single isomer, unassigned) [196A-45 Diastereomer A, 1-(4-(3-acetamido-4-(3,5-difluorophenyl)-2-hydroxybutylamino)-4-(3-tert-butylphenyl)cyolohexyl)-3-methylurea] | >3.5
CNC(=O)NC1CCC(NCC(O)C(Cc2cc(F)cc(F)c2)NC(C)=O)(c2cccc(C(C)(C)C)c2)CC1 (single isomer, unassigned) [196A-46 Diastereomer B, 1-(4-(3-acetamido-4-(3,5-difluorophenyl)-2-hydroxybutylamino)-4-(3-tert-butylphenyl)cyclohexyl)-3-methylurea] | >1.3
CC(=O)NC(Cc1cc(F)cc(F)c1)C(O)CNC1(c2cccc(C(C)(C)C)c2)CCC([S+](C)[O-])CC1 (stereo not shown) [196A-34 Mix, N-(4-(1-(3-tert-butylphenyl)-4-(methylsulfinyl)cyclohexylamino)-1-(3,5-difluorophenyl)-3-hydroxybutan-2yl)acetamide] | 2.1
CCc1cccc(C2(NCC(O)C(Cc3cc(F)cc(F)c3)NC(C)=O)CCOCC2)c1 (stereo not shown) [Example 196A-1, N-{1-(3,5-Difluoro-benzyl)-3-[4-(3-ethyl-phenyl)-tetrahydro-pyran-4-ylamino]-2-hydroxy-propyl}-acetamide] | 3.0 and 2.3 and 2.7
CC(=O)NC(Cc1ccc(O)cc1)C(O)CNC1(c2cccc(C(C)C)c2)CCCCC1 (stereo not shown) [Example 196A-2, N-{2-Hydroxy-1-(4-hydroxy-benzyl)-3-[1-(3-isopropyl-phenyl)-cyclohexylamino]-propyl}-acetamide] | 3.6 and 4.1 and 3.9
CC(=O)NC(Cc1cccc(F)c1)C(O)CNC1(c2cccc(C(C)C)c2)CCCCC1 (stereo not shown) [Example 196A-4, N-{1-(3-Fluoro-benzyl)-2-hydroxy-3-[1-(3-isopropyl-phenyl)-cyclohexylamino]-propyl}-acetamide] | 1.1
CC(=O)NC(Cc1cc(F)cc(F)c1)C(O)CNC1(c2cccc(C(C)C)c2)CCC2(CC1)OCCO2 (stereo not shown) [Example 196A-6, N-{1-(3,5-Difluoro-benzyl)-2-hydroxy-3-[8-(3-isopropyl-phenyl)-1,4-dioxa-spiro[4.5]dec-8-ylamino]-propyl}-acetamide] | 11.4
CC(=O)NC(Cc1cc(F)cc(F)c1)C(O)CNC1(c2cccc(C(C)C)c2)CCS(=O)(=O)CC1 (stereo not shown) [Example 196A-9, N-{1-(3,5-Difluoro-benzyl)-2-hydroxy-3-[4-(3-isopropyl-phenyl)-1,1-dioxo-hexahydro-1l6-thiopyran-4-ylamino]-propyl}-acetamide] | 1.4
CC(=O)NC(Cc1cc(F)cc(F)c1)C(O)CNC1(c2cccc(C(C)C)c2)CCN(C(C)=O)CC1 (stereo not shown) [Example 196A-10, N-[3-[1-Acetyl-4-(3-isopropyl-phenyl)-piperidin-4-ylamino]-1-(3,5-difluoro-benzyl)-2-hydroxy-propyl]-acetamide] | 3.2
CC(=O)NC(Cc1cc(F)cc(F)c1)C(O)CNC1(c2cccc(C(C)C)c2)CCN(S(C)(=O)=O)CC1 (stereo not shown) [Example 196A-11, N-{1-(3,5-Difluoro-benzyl)-2-hydroxy-3-[4-(3-isopropyl-phenyl)-1-methanesulfonyl-piperidin-4-ylamino]-propyl}-acetamide] | 12.7
CC(=O)NC(Cc1cc(F)cc(F)c1)C(O)CNC1(c2cccc(C(C)C)c2)CCN(C(=O)C(F)(F)F)CC1 (stereo not shown) [Example 196A-12, N-{1-(3,5-Difluoro-benzyl)-2-hydroxy-3-[4-(3-isopropyl-phenyl)-1-(2,2,2-trifluoro-acetyl)-piperidin-4-ylamino]-propyl}-acetamide] | 1.1
CC(=O)NC(Cc1cc(F)cc(F)c1)C(O)CNC1(c2cccc(C(C)C)c2)CCN(C=O)CC1 (stereo not shown) [Example 196A-13, N-{1-(3,5-Difluoro-benzyl)-3-[1-formyl-4-(3-isopropyl-phenyl)-piperidin-4-ylamino]-2-hydroxy-propyl}-acetamide] | 33.5

Source: patent publication US20060014790A1, “Methods of treatment of amyloidosis using spirocyclohexane aspartyl-protease inhibitors” (priority 2004, published 2006)
